# Test results as given in ChEMBL document CHEMBL1134647, “Design and synthesis of non-peptidic inhibitors for the Syk C-terminal SH2 domain based on structure-based in-silico screening” (J Med Chem, 2001).
# Target: T1, Tyrosine-protein kinase SYK (Homo sapiens, UniProt P43405)
# Assay: Inhibitory activity against Syk C-terminal SH2 domain in in-silico screening
# Format: functional
row,SMILES,IC50 [µM]
1,NC(Cc1ccc(CP(=O)(O)O)cc1)C(=O)O (stereo not given),14000

# Target: T1, Tyrosine-protein kinase SYK
# Assay: Inhibitory activity against Syk C-terminal SH2.
# Format: functional
row,SMILES,IC50 [µM]
1,O=C(O)C(C(=O)O)c1ccccc1,12000
2,CC(C)CCCCN(CCCCCC(=O)O)S(=O)(=O)/C=C/c1ccc(NC(=O)C2CC=C(C(C(=O)O)C(=O)O)CC2)cc1 (stereo not given),71
3,O=C(O)C(C(=O)O)C1CC/C=C\CCC1 (stereo not given),7700
4,O=C(O)CCCCCN(CCCC1CCCCC1)S(=O)(=O)/C=C/c1ccc(NC(=O)C2CC=C(C(C(=O)O)C(=O)O)CC2)cc1 (stereo not given),41
5,O=C(O)CCCCCN(CCCC1CCCCC1)S(=O)(=O)/C=C/c1ccc(NC(=O)[C@H]2CC[C@H](C(C(=O)O)C(=O)O)CC2)cc1,38
6,O=C(O)CCCCCNS(=O)(=O)/C=C/c1ccc(NC(=O)[C@H]2CC[C@H](C(C(=O)O)C(=O)O)CC2)cc1,350
7,CC(C)CCCCN(CCCCCC(=O)O)S(=O)(=O)/C=C/c1ccc(NC(=O)[C@H]2CC[C@H](C(C(=O)O)C(=O)O)CC2)cc1,69
8,O=C(O)CCCCCN(CCCC1CCCCC1)S(=O)(=O)/C=C/c1ccc(NC(=O)[C@H]2CC[C@@H](C(C(=O)O)C(=O)O)CC2)cc1,40
9,O=C(O)C(C(=O)O)C1CCCCC1,5900
10,CC(C)CCCCN(CCCCCC(=O)O)S(=O)(=O)/C=C/c1ccc(NC(=O)[C@H]2CC[C@@H](C(C(=O)O)C(=O)O)CC2)cc1,63

# Target: T1, Tyrosine-protein kinase SYK
# Assay: Inhibitory activity against Syk C-terminal SH2 (at 10 mM)
# Format: functional
row,SMILES,IC50 [µM]
1,O=C(O)CCCCCNS(=O)(=O)/C=C/c1ccccc1,8000

# Target: T1, Tyrosine-protein kinase SYK
# Assay: Inhibitory activity against Syk C-terminal SH2 at 10 mM
# Format: functional
row,SMILES,inhibition [%]
1,Nc1cccc2c(S(=O)(=O)NCC(=O)O)cccc12,39
2,O=C(O)CCNS(=O)(=O)c1ccc(F)cc1,0.9
3,O=C(O)CCCNS(=O)(=O)/C=C/c1ccccc1,2.3
